The record followed here is publication PMC9207812 (ACS chemical biology, 2022).

Holding throughout (type): binding
In experiment [1] the target is T1, WDR5 P216L (Homo sapiens, UniProt P61964, P216L). Description: Biolayer interferometry (BLI), P216L. The settings on record: for koff: pH 7.5, read-out: koff (dissociation rate constant); for kon: pH 7.5, read-out: kon (association rate constant). For orientation: In BLI a coated tip is dipped into the sample, and binding shifts an interference pattern.
For experiment [2], the target named is T2, WDR5 F133L (Homo sapiens, UniProt P61964, F133L). Description: Steady-state fluorescence polarization (FP), F133L. A general note: Polarisation of emitted light reports the rotation of a fluorescent probe.
The target of experiment [3] is T3, WDR5 D172A (Homo sapiens, UniProt P61964, D172A). The experiment is described as follows: Biolayer interferometry (BLI), D172A. Particulars: for koff: pH 7.5, read-out: koff (dissociation rate constant); for kon: pH 7.5, read-out: kon (association rate constant).
In experiment [4] the target is T4, WDR5 S218F (Homo sapiens, UniProt P61964, S218F). The experiment is described as follows: Biolayer interferometry (BLI), S218F. Particulars: for koff: pH 7.5, read-out: koff (dissociation rate constant); for kon: pH 7.5, read-out: kon (association rate constant).
Experiment [5] concerns the target T1, WDR5 P216L. Description: Steady-state fluorescence polarization (FP), P216L.
Experiment [6] deals with T3, WDR5 D172A. Description: Steady-state fluorescence polarization (FP), D172A.
Experiment [7] concerns the target T5, WDR5 S175L (Homo sapiens, UniProt P61964, S175L). The experiment is described as follows: Steady-state fluorescence polarization (FP), S175L.
The target of experiment [8] is T4, WDR5 S218F. Description: Steady-state fluorescence polarization (FP), S218F.
The target of experiment [9] is T5, WDR5 S175L. Description: Biolayer interferometry (BLI), S175L. Particulars: for koff: pH 7.5, read-out: koff (dissociation rate constant); for kon: pH 7.5, read-out: kon (association rate constant).
Experiment [10] addresses T6, WDR5 Y260H (Homo sapiens, UniProt P61964, Y260H). The experiment is described as follows: Steady-state fluorescence polarization (FP), Y260H.
The target in experiment [11] is T2, WDR5 F133L. The experiment is described as follows: Biolayer interferometry (BLI), F133L. Particulars: for increase in KD-BLI: F133L versus native WDR5; for koff: pH 7.5, read-out: koff (dissociation rate constant); for kon: pH 7.5, read-out: kon (association rate constant).
Experiment [12] deals with T6, WDR5 Y260H. Description: Biolayer interferometry (BLI), Y260H. The settings on record: for koff: pH 7.5, read-out: koff (dissociation rate constant); for kon: pH 7.5, read-out: kon (association rate constant).

No end group written: not given here.

For the compound `CC(C)[C@H](NC(=O)[C@H](Cc1c[nH]cn1)NC(=O)[C@@H](N)CCC(=O)O)C(=O)N[C@H](C(=O)NCC(=O)N[C@@H](CS)C(=O)N[C@@H](C)C(=O)N[C@@H](CCCNC(=N)N)C(=O)N[C@@H](CO)C(=O)N[C@@H](CCC(=O)O)C(=O)NCC(=O)N[C@@H](Cc1ccccc1)C(=O)N[C@@H](Cc1ccc(O)cc1)C(=O)N[C@H](C(N)=O)[C@@H](C)O)[C@@H](C)O` [SETd1BWin], the dissociation constant Kd at WDR5 P216L [1] came to 370 ± 40 nM; on WDR5 F133L [2], 820 ± 30 nM; at WDR5 D172A [3], 260 ± 10 nM; at WDR5 S218F [4] it was 360 ± 20 nM; at WDR5 P216L [5], 28 ± 2 nM; on WDR5 D172A [6], 18 ± 1 nM. Also, the Kd on WDR5 S175L [7] stood at 11 ± 1 nM; at WDR5 S218F [8], 37 ± 1 nM; on WDR5 S175L [9], 56 ± 3 nM; at WDR5 Y260H [10], 23 ± 2 nM; on WDR5 F133L [11], 6 µM; at WDR5 Y260H [12], 230 ± 10 nM. In addition, the koff amounted to 0.03 ± 0.005 s⁻¹ on WDR5 P216L [1]; 0.023 ± 0.003 s⁻¹ on WDR5 D172A [3]; 0.023 ± 0.002 s⁻¹ on WDR5 S218F [4]; 0.0049 ± 0.0003 s⁻¹ at WDR5 S175L [9]; 0.24 ± 0.02 s⁻¹ at WDR5 F133L [11]; 0.023 ± 0.003 s⁻¹ on WDR5 Y260H [12]. The kon was found to be 80000 ± 8000 M⁻¹ s⁻¹ on WDR5 P216L [1]; 89000 ± 14000 M⁻¹ s⁻¹ at WDR5 D172A [3]; 63000 ± 6000 M⁻¹ s⁻¹ at WDR5 S218F [4]; 84000 ± 6000 M⁻¹ s⁻¹ on WDR5 S175L [9]; 43000 ± 12000 M⁻¹ s⁻¹ on WDR5 F133L [11]; 100000 ± 10000 M⁻¹ s⁻¹ at WDR5 Y260H [12]. At WDR5 F133L [11], the “increase in KD-BLI” value was “between one and two orders of magnitude”.

For the compound VNPTGCARSEPKMS-NH2 [MLL3Win], the Kd at WDR5 P216L [1] turned out to be 200 ± 30 nM; on WDR5 F133L [2], 1000 nM; at WDR5 D172A [3] it was 140 ± 10 nM; on WDR5 S218F [4] it was 530 ± 20 nM; at WDR5 P216L [5], 19 ± 1 nM; on WDR5 D172A [6] it was 12 ± 1 nM. Also, the Kd was found to be 23 ± 1 nM at WDR5 S175L [7]; 80 ± 7 nM on WDR5 S218F [8]; 330 ± 20 nM at WDR5 S175L [9]; 22 ± 2 nM at WDR5 Y260H [10]; 3.7 µM on WDR5 F133L [11]; 110 ± 20 nM at WDR5 Y260H [12]. The koff was found to be 0.011 ± 0.003 s⁻¹ at WDR5 P216L [1]; 0.0093 ± 0.0019 s⁻¹ at WDR5 D172A [3]; 0.021 ± 0.003 s⁻¹ at WDR5 S218F [4]; 0.016 ± 0.002 s⁻¹ on WDR5 S175L [9]; 0.1 ± 0.01 s⁻¹ on WDR5 F133L [11]; 0.0077 ± 0.0006 s⁻¹ on WDR5 Y260H [12]. In addition, the kon at WDR5 P216L [1] was determined as 53000 ± 7000 M⁻¹ s⁻¹; on WDR5 D172A [3], 65000 ± 13000 M⁻¹ s⁻¹; at WDR5 S218F [4], 39000 ± 5000 M⁻¹ s⁻¹; at WDR5 S175L [9], 49000 ± 3000 M⁻¹ s⁻¹; at WDR5 F133L [11], 36000 ± 21000 M⁻¹ s⁻¹; on WDR5 Y260H [12], 64000 ± 2000 M⁻¹ s⁻¹. Moreover, the “increase in KD-BLI” value on WDR5 F133L [11] is “between one and two orders of magnitude”.

Take LNPHGSARAEVHLS-NH2 [MLL1Win]: the Kd at WDR5 P216L [1] is no less than 100000 nM; at WDR5 F133L [2] it was greater than 53000 nM; on WDR5 D172A [3], no less than 100000 nM; on WDR5 S218F [4], no less than 100000 nM; on WDR5 P216L [5] it was greater than 14600 nM; on WDR5 D172A [6], 5600 nM. For the same compound, the Kd on WDR5 S175L [7] was 4800 nM; on WDR5 S218F [8], 8100 nM; on WDR5 S175L [9] it was no less than 100000 nM; at WDR5 Y260H [10], 9700 nM; on WDR5 Y260H [12], no less than 100000 nM. Further, the koff on WDR5 P216L [1], at WDR5 D172A [3], at WDR5 S218F [4], on WDR5 S175L [9] and on WDR5 Y260H [12] was greater than 1 s⁻¹ in each case.

For EHQTGSARSEGYYP-NH2 [SETd1AWin], the Kd at WDR5 P216L [1] came to 380 ± 20 nM; at WDR5 F133L [2], 5700 nM; at WDR5 D172A [3] it was 900 ± 240 nM; on WDR5 S218F [4], 830 ± 110 nM; at WDR5 P216L [5], 39 ± 2 nM; at WDR5 D172A [6] it was 61 ± 2 nM. Also, the dissociation constant Kd at WDR5 S175L [7] was 92 ± 7 nM; at WDR5 S218F [8] it was 100 ± 10 nM; on WDR5 S175L [9], 1400 nM; on WDR5 Y260H [10] it was 140 ± 20 nM; on WDR5 F133L [11] it was 30 µM; at WDR5 Y260H [12], 1100 nM. Moreover, the koff was 0.033 ± 0.004 s⁻¹ on WDR5 P216L [1]; 0.11 ± 0.03 s⁻¹ on WDR5 D172A [3]; 0.046 ± 0.007 s⁻¹ at WDR5 S218F [4]; 0.089 ± 0.03 s⁻¹ at WDR5 S175L [9]; 0.69 ± 0.04 s⁻¹ on WDR5 F133L [11]; 0.098 ± 0.029 s⁻¹ on WDR5 Y260H [12]. For the same compound, the kon is 86000 ± 8000 M⁻¹ s⁻¹ on WDR5 P216L [1]; 130000 ± 10000 M⁻¹ s⁻¹ at WDR5 D172A [3]; 56000 ± 4000 M⁻¹ s⁻¹ at WDR5 S218F [4]; 61000 ± 7000 M⁻¹ s⁻¹ at WDR5 S175L [9]; 26000 ± 3000 M⁻¹ s⁻¹ on WDR5 F133L [11]; 88000 ± 13000 M⁻¹ s⁻¹ on WDR5 Y260H [12]. Also, the “increase in KD-BLI” value at WDR5 F133L [11] is “between one and two orders of magnitude”.

With LNPHGAARAEVYLS-NH2 [MLL4Win], the Kd at WDR5 P216L [1] was 9900 nM; at WDR5 F133L [2], 8800 nM; at WDR5 D172A [3] it was 1400 nM; on WDR5 S218F [4] it was 3400 nM; at WDR5 P216L [5], 690 ± 60 nM; on WDR5 D172A [6], 78 ± 3 nM. Also, the Kd on WDR5 S175L [7] is 280 ± 30 nM; at WDR5 S218F [8], 420 ± 40 nM; on WDR5 S175L [9] it was 4200 nM; on WDR5 Y260H [10] it was 130 ± 10 nM; at WDR5 F133L [11], no less than 100 µM. Besides, the koff was 0.22 ± 0.05 s⁻¹ at WDR5 P216L [1]; 0.051 ± 0.01 s⁻¹ on WDR5 D172A [3]; 0.071 ± 0.001 s⁻¹ on WDR5 S218F [4]; 0.13 ± 0.004 s⁻¹ on WDR5 S175L [9]; greater than 1 s⁻¹ at WDR5 F133L [11]; 0.047 ± 0.028 s⁻¹ on WDR5 Y260H [12]. In addition, the kon on WDR5 P216L [1] came to 19000 ± 3000 M⁻¹ s⁻¹; on WDR5 D172A [3], 37000 ± 4000 M⁻¹ s⁻¹; on WDR5 S218F [4] it was 20000 ± 2000 M⁻¹ s⁻¹; on WDR5 S175L [9] it was 30000 ± 1000 M⁻¹ s⁻¹; at WDR5 Y260H [12] it was 24000 ± 3000 M⁻¹ s⁻¹.

As to INPTGCARSEPKIL-NH2 [MLL2Win], the dissociation constant Kd on WDR5 P216L [1] worked out at 200 ± 50 nM; on WDR5 F133L [2] it was 2100 nM; at WDR5 D172A [3] it was 240 ± 10 nM; at WDR5 S218F [4], 640 ± 20 nM; at WDR5 P216L [5], 18 ± 3 nM; at WDR5 D172A [6], 25 ± 4 nM. In addition, the Kd on WDR5 S175L [7] was 11 ± 1 nM; at WDR5 S218F [8], 94 ± 7 nM; at WDR5 S175L [9], 130 ± 10 nM; at WDR5 Y260H [10], 34 ± 4 nM; on WDR5 F133L [11], 8.3 µM; on WDR5 Y260H [12], 200 ± 20 nM. Further, the koff is 0.011 ± 0.002 s⁻¹ at WDR5 P216L [1]; 0.014 ± 0.001 s⁻¹ on WDR5 D172A [3]; 0.025 ± 0.002 s⁻¹ on WDR5 S218F [4]; 0.0063 ± 0.0001 s⁻¹ on WDR5 S175L [9]; 0.14 ± 0.02 s⁻¹ on WDR5 F133L [11]; 0.013 ± 0.001 s⁻¹ at WDR5 Y260H [12]. Moreover, the kon at WDR5 P216L [1] turned out to be 56000 ± 8000 M⁻¹ s⁻¹; on WDR5 D172A [3], 57000 ± 6000 M⁻¹ s⁻¹; at WDR5 S218F [4] it was 40000 ± 2000 M⁻¹ s⁻¹; at WDR5 S175L [9], 49000 ± 4000 M⁻¹ s⁻¹; on WDR5 F133L [11] it was 16000 ± 1000 M⁻¹ s⁻¹; on WDR5 Y260H [12], 66000 ± 9000 M⁻¹ s⁻¹. Further, the “increase in KD-BLI” value on WDR5 F133L [11] was “between one and two orders of magnitude”.

The term Kd denotes the concentration at which binding is half-saturated. Low readings indicate a tighter complex, high ones a looser complex. One may read the koff as the rate constant with which the complex falls apart. Broadly, the kon is a measure of how fast the partners come together.
